*1 amine or outer side, *2 acyl side, *3 side chain or, on linkers, in order; H or OH if unused. Where a SMILES comes first, the peptide text is derived from it. [ ]: non-standard residue; d: D form. The star is where a group is joined. Dolaproine = CO[C@@H]([C@@H]1CCCN1)[C@@H](C)C(=O)O; Phe(F5) = N[C@@H](Cc1c(F)c(F)c(F)c(F)c1F)C(=O)O; Dil = CC[C@H](C)[C@H](NC)[C@@H](CC(=O)O)OC; PABC = O=C(OCc1ccc(N[*:1])cc1)[*:2]; X1 = C[C@@H](N*)[C@@H](O)c1ccccc1; Cit = NC(=O)NCCC[C@H](N)C(=O)O; NMeV = CN[C@H](C(=O)O)C(C)C; ClZ = O=C(OCc1ccccc1Cl)*
Columns and labels:
Cathepsin S [1] = biological target: T1, Cathepsin S (Homo sapiens, UniProt P25774); assay: Prodrug cleavage / MMAE release by LC-MS, cathepsin S; assay type: biochemical; settings: prodrug 50 μM, pH 5.5, 37 °C, 0-120 min
T1 construct: made in house
T1 sequence (P25774 115-331): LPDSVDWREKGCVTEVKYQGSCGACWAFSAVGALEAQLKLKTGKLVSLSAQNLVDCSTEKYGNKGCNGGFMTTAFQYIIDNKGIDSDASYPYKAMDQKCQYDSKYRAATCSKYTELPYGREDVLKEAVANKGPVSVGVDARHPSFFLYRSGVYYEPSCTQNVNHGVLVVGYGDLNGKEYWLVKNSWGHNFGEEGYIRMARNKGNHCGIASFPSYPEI
Description: Cleavage assays were conducted at 37 °C in 1 mL reaction volumes using acetate buffer composed of 100 mM sodium acetate (pH 5.5), 100 mM NaCl, 1 mM EDTA, and 5 mM DTT. Buffers were prepared at room temperature and equilibrated before use. Prodrugs were initially dissolved in DMSO at a stock concentration of 10 mM, then diluted into the reaction buffer to a final concentration of 50 μM, maintaining a DMSO concentration below 0.5% (v/v). Reactions were initiated by the addition of recombinant cathepsin and carried out in glass LC-MS vials incubated at 37 °C. At specified time points (0, 5, 30, 60, and 120 min), aliquots were taken and directly injected into the LC-MS system without further processing. Quantification of MMAE release was based on absorbance at 220 nm. The area under the MMAE peak was integrated, and the amount of released MMAE was plotted as a function of time. Each time point was measured in triplicate, and results are presented as mean ± standard deviation (SD). A standard curve was prepared using free MMAE at concentrations of 1, 5, 10, 20, and 50 μM to enable accurate quantification of MMAE released from the prodrugs.

Cathepsin B [2] = biological target: T2, Cathepsin B (Homo sapiens, UniProt P07858); assay: Second-order rate constants of inhibition (kobs/[I]), cathepsin B; assay type: biochemical; parameters: made in house; settings: for kobs/[I] Cath B: Figure 4D, Cy5- and BODIPY-labeled probes
Description: (§1) All kinetic studies were performed using an fMax fluorescence plate reader (Molecular Devices) in kinetic mode with 96- or 384-well plates. ACC fluorescence was monitored at excitation and emission wavelengths of 355 and 460 nm, respectively. Recombinant human cysteine cathepsins L, V, B, K, and S were expressed and purified as previously described. Prior to use, all cysteine cathepsins were titrated with E64 to normalize enzymatic activity. Assays for cathepsins were conducted in 100 mM sodium acetate buffer containing 10 mM NaCl and 10 mM DTT (pH 5.5). Breast cancer cell lysates (BT-474, MCF-7, MDA-MB-231) were prepared by culturing cells to confluence in the appropriate media, replacing media with PBS, and harvesting the cells using a cell scraper (without trypsin). The cells were pelleted by centrifugation (400 × g, 5 min), resuspended in PBS, and centrifuged again under the same conditions. After removal of the supernatant, the pellet was resuspended in cathepsin assay buffer (excluding DTT) and sonicated. Lysates were then clarified by centrifugation (12,000 × g, 5 min), and the supernatants were collected and stored at −80 °C until use. All enzymatic assays, including HyCoSuL library screening and kinetic analyses of synthetic substrates, inhibitors, probes and prodrugs, were conducted at 37 °C and repeated at least three times. Mean values are reported. Kinetic data were analyzed using GraphPad Prism software (version 10.4.1).
(§2) The second-order rate constants of inhibition (k obs/[I]) were determined for human recombinant cathepsins S, B, L, and V using their respective assay buffers. All measurements were performed under pseudo-first-order kinetic conditions, as previously described. Inhibitors or ABPs were serially diluted in assay buffer and transferred to a 96-well plate. Each well was supplemented with the fluorogenic substrate Cbz-Phe-Arg-AMC at a final concentration of 25 μM and preincubated for 15 min. In parallel, enzymes were preactivated in assay buffer for 15 min at room temperature. Following preincubation, the activated enzymes were added to the wells, and fluorescence was monitored immediately for 30 min. The k obs/[I] values (M^-1S^-1) were calculated from the progress curves and averaged from at least three independent experiments. Final inhibitor (or ABP) concentrations were maintained at a minimum of 5-fold excess relative to enzyme concentrations to ensure pseudo-first-order conditions. Results were analyzed in GraphPad Prism and are reported as mean ± standard deviation.

Cathepsin S [3] = biological target: T1, Cathepsin S; assay: Second-order rate constants of inhibition (kobs/[I]), cathepsin S; assay type: biochemical; settings: for kobs/[I] Cath S / Selectivity S to B / Selectivity S to V: Figure 4D; for kobs/[I] Cath S: Cy5- and BODIPY-labeled probes; for Selectivity S to B / Selectivity S to V: calculated from kobs/[I]; for Selectivity S to B: cathepsin S over cathepsin B; for Selectivity S to V: cathepsin S over cathepsin V
Description: as §1, §2

Cathepsin L [4] = biological target: T3, Cathepsin L (Homo sapiens, UniProt P07711); assay: Second-order rate constants of inhibition (kobs/[I]), cathepsin L; assay type: biochemical; settings: for kobs/[I] Cath L: Figure 4D, Cy5- and BODIPY-labeled probes
T3 construct: made in house
T3 sequence (P07711 114-333): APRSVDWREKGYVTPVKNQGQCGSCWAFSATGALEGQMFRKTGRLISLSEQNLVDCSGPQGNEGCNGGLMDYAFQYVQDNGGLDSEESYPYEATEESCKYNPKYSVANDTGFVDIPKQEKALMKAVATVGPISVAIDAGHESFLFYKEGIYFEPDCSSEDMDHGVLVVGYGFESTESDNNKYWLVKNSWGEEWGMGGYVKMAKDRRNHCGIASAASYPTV
Description: as §1, §2

[5] = biological target: T4, active cathepsin S in MDA-MB-231 live cells (Homo sapiens, UniProt P25774); assay: Labeling of active cathepsin S in MDA-MB-231 live cells with Cy5 probes; assay type: cell-based; settings: inhibitor 25 μM for 2 h, then OG-233 or OG-234 for 24 h
T4 construct: endogenous in cells; host or cells: MDA-MB-231
T4 sequence (P25774 115-331): as the sequence (P25774 115-331) above
Description: 50,000 of MDA-MB-231 cells were seeded into 12-well plate and allowed to attach overnight. The next day, OG-233 and OG-234 probes (1 μM final concentration) were added to the cells and incubated for various times (from 0,5 h up to 24 h). Control cells were preincubated with cathepsin S inhibitors (JN1, JN4, JN7) at 25 μM for 2 h, and then incubated with OG-233 or OG-234 probes for 24 h. Next, cells were harvested and prepared for SDS-PAGE analysis as described in the above section. Electrophoresis was run for 25 min (4−12% Bis-Tris Plus 10-well gel, 200 V). Next, proteins were transferred onto the membrane (0.2 μm nitrocellulose membrane, 10 V, 60 min) and Ponceau S was used to verify equal loading and transfer. Membranes were then blocked with 5% BSA in TBS-T buffer for 1 h at RT. Membranes were next incubated anticathepsin S antibody (1:1,000, overnight, 4 °C), and the next day with a secondary antibody (IRDye 800CW, donkey anti-Goat) for 30 min at RT, and scanned at 680 and 800 nm using the Sapphire biomolecular imager (Azure Biosystems) to detect the Cy5 probes and cathepsin S. All images were analyzed with Image Studio software.

Cathepsin S [6] = biological target: T1, Cathepsin S; assay: Fluorogenic ACC substrate hydrolysis kinetics, cathepsin S; assay type: biochemical; parameters: kcat Cathepsin S: unit not given here; settings: third-generation substrates, steady-state; for Km: Table S5; for kcat Cathepsin S: Table S6
Description: as §1
(§3) Peptide substrates for cathepsin S were designed based on P4-P1 specificity profiling and synthesized on Rink amide resin using standard Fmoc solid-phase peptide synthesis protocols. The resin was swollen in dichloromethane (DCM) and deprotected with 20% piperidine in DMF. Fmoc-ACC-OH was coupled twice using HOBt/DIC in DMF and allowed to react overnight. Subsequent Fmoc-protected amino acids were coupled sequentially using HATU and 2,4,6-collidine, with Fmoc deprotection after each step using 20% piperidine in DMF. Following chain assembly, the N-terminus was acetylated using AcOH/HBTU/DIPEA in DMF for 45 min. Peptides were cleaved from the resin using TFA/TIPS/H2O (95:2.5:2.5, v/v/v) for 2 h, precipitated in cold diethyl ether, lyophilized, and purified by preparative HPLC. […] Final compounds were dissolved in DMSO at 20 mM and stored at −80 °C. To evaluate substrate selectivity, each fluorogenic peptide (10 μM) was incubated with recombinant cysteine cathepsins (5 nM) in assay buffer at 37 °C. Fluorescence emission was recorded at 460 nm, and initial cleavage rates were reported as relative fluorescence units per second (RFU/s). For selected substrates, detailed kinetic parameters (k cat, KM, and k cat/KM) were determined as previously described.

Cathepsin L [7] = biological target: T3, Cathepsin L; assay: Fluorogenic ACC substrate hydrolysis kinetics, cathepsin L; assay type: biochemical; parameters: kcat Cathepsin L: unit not given here; settings: third-generation substrates, steady-state; for Km: Table S5; for kcat Cathepsin L: Table S6
Description: as §1, §3

Cathepsin B [8] = biological target: T2, Cathepsin B; assay: Fluorogenic ACC substrate hydrolysis kinetics, cathepsin B; assay type: biochemical; parameters: made in house; kcat Cathepsin B: unit not given here; settings: third-generation substrates, steady-state; for Km: Table S5; for kcat Cathepsin B: Table S6
Description: as §1, §3

Cathepsin V [9] = biological target: T5, Cathepsin V (Homo sapiens, UniProt O60911); assay: Fluorogenic ACC substrate hydrolysis kinetics, cathepsin V; assay type: biochemical; parameters: kcat Cathepsin V: unit not given here; settings: third-generation substrates, steady-state; for Km: Table S5; for kcat Cathepsin V: Table S6
T5 construct: made in house
T5 sequence (O60911 114-334): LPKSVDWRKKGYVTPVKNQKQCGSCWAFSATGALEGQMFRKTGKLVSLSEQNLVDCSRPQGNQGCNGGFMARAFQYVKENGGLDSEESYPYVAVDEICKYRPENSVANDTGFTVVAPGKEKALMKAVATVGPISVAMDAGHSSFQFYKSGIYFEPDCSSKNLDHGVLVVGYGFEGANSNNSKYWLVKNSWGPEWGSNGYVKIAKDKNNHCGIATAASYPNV
Description: as §1, §3

Cathepsin V [10] = biological target: T5, Cathepsin V; assay: Second-order rate constants of inhibition (kobs/[I]), cathepsin V; assay type: biochemical; settings: Figure 4D; Cy5- and BODIPY-labeled probes
Description: as §1, §2

Compound: CC[C@H](C)[C@@H]([C@@H](CC(=O)N1CCC[C@H]1[C@H](OC)[C@@H](C)C(=O)N[C@H](C)[C@@H](O)c1ccccc1)OC)N(C)C(=O)[C@@H](NC(=O)[C@H](C(C)C)N(C)C(=O)OCc1ccc(NC(=O)[C@@H](CCC(=O)OC)NC(=O)[C@H](CCCCNC(=O)OCc2ccccc2Cl)NC(=O)[C@H](CCCNC(N)=O)NC(=O)[C@H](Cc2c(F)c(F)c(F)c(F)c2F)NC(C)=O)cc1)C(C)C [313D, Ac-Phe(F5)-Cit-Lys(2ClZ)-DGlu(Me)-PABC-MMAE] (Ac-[Phe(F5)][Cit]K(ClZ)[dE](OMe)[PABC][NMeV]V[Dil][Dolaproine]-X1; N-terminus and C-terminus assumed)
- cleavage / free MMAE release by cathepsin S (Cathepsin S [1]): remained stable

Compound: CC(C)C[C@H](NC(=O)[C@H]1O[C@@H]1C(=O)O)C(=O)NCCCCN=C(N)N [E-64, reference compound]
- kinact/KI (Cathepsin B [2]; pH 5.5, read-out: kobs/[I] Cathepsin B): 81200 M⁻¹ s⁻¹
- kinact/KI (Cathepsin S [3]; pH 5.5, Table S8, AOMK inhibitors, pseudo-first-order conditions): 132000 M⁻¹ s⁻¹
- kinact/KI (Cathepsin L [4]; pH 5.5, read-out: kobs/[I] Cathepsin L): 65100 M⁻¹ s⁻¹

Compound: CC[C@H](C)[C@@H]([C@@H](CC(=O)N1CCC[C@H]1[C@H](OC)[C@@H](C)C(=O)N[C@H](C)[C@@H](O)c1ccccc1)OC)N(C)C(=O)[C@@H](NC(=O)[C@H](C(C)C)N(C)C(=O)OCc1ccc(NC(=O)[C@H](CCC(=O)OC)NC(=O)[C@H](CCCCNC(=O)OCc2ccccc2Cl)NC(=O)[C@H](CCCNC(N)=O)NC(=O)[C@H](Cc2c(F)c(F)c(F)c(F)c2F)NC(C)=O)cc1)C(C)C [compound 313, Ac-Phe(F5)-Cit-Lys(2ClZ)-Glu(Me)-PABC-MMAE] (Ac-[Phe(F5)][Cit]K(ClZ)E(OMe)[PABC][NMeV]V[Dil][Dolaproine]-X1; N-terminus and C-terminus assumed)
- cleavage / free MMAE release by cathepsin S (Cathepsin S [1]): selectively and efficiently hydrolyzed only by cathepsin S

Compound: Ac-Met(O2)-Cit-NptGly-Glu(Me)-AOMK [JN-1]
- effect of inhibitor pretreatment on probe binding [5]: did not influence probe binding

Compound: Ac-Phe(F5)-Cit-Lys(2ClZ)-Glu(Me)-AOMK [JN-7]
- effect of inhibitor pretreatment on probe binding [5]: did not influence probe binding

Compound: Ac-Phe(F5)-Thz-2Aoc-Gln-ACC [OG-200]
- Km (Cathepsin S [6]): 1.63 µM
- kcat Cathepsin S (Cathepsin S [6]): 0,15
- Km (Cathepsin L [7]): 15.9 µM
- kcat Cathepsin L (Cathepsin L [7]): 0,02
- Km (Cathepsin B [8]): 20.3 µM
- kcat Cathepsin B (Cathepsin B [8]): 0,30
- Km (Cathepsin V [9]): 4.31 µM
- kcat Cathepsin V (Cathepsin V [9]): 0,20

Compound: Ac-Phe(F5)-Thz-2Aoc-Glu(Me)-ACC [OG-201]
- Km (Cathepsin S [6]): 3.04 µM
- kcat Cathepsin S (Cathepsin S [6]): 0,65
- Km (Cathepsin L [7]): 12.1 µM
- kcat Cathepsin L (Cathepsin L [7]): 0,03
- Km (Cathepsin B [8]): 15.8 µM
- kcat Cathepsin B (Cathepsin B [8]): 0,46
- Km (Cathepsin V [9]): 11.2 µM
- kcat Cathepsin V (Cathepsin V [9]): 0,29

Compound: BODIPY-PEG(4)-Met(O2)-Cit-NptGly-Glu(Me)-AOMK [OG-236]
- kobs/[I] Cath V (Cathepsin V [10]): 2,170 M^-1s^-1
- kobs/[I] Cath B (Cathepsin B [2]): 3,800 M^-1s^-1
- kobs/[I] Cath S (Cathepsin S [3]): 78,300 M^-1s^-1
- Selectivity S to B (Cathepsin S [3]): 21
- Selectivity S to V (Cathepsin S [3]): 36
- kobs/[I] Cath L (Cathepsin L [4]): < 500 M⁻¹ s⁻¹

Compound: BODIPY-PEG(4)-Phe(F5)-Cit-Lys(2ClZ)-Glu(Me)-AOMK [OG-235]
- kobs/[I] Cath V (Cathepsin V [10]): 1,640 M^-1s^-1
- kobs/[I] Cath B (Cathepsin B [2]): 7,700 M^-1s^-1
- kobs/[I] Cath S (Cathepsin S [3]): 1,140,000 M^-1s^-1
- Selectivity S to B (Cathepsin S [3]): 148
- Selectivity S to V (Cathepsin S [3]): 695
- higher potency than the unlabeled parent inhibitor (Cathepsin S [3]; cathepsin S kobs/[I], probe vs parent inhibitor): over 2 fold
- selectivity for cathepsin S over cathepsin L (Cathepsin S [3]; kobs/[I] based): > 2000 fold
- selectivity for cathepsin S over cathepsin V (Cathepsin S [3]; kobs/[I] based): > 500 fold
- kobs/[I] Cath L (Cathepsin L [4]): < 500 M⁻¹ s⁻¹

Source: publication PMC13403234, “Engineering Cathepsin S Selective Chemical Probes and Antibody−Drug Conjugates through Substrate Profiling with Unnatural Amino Acids” (Journal of Medicinal Chemistry, 2026)
